One data set has as its target T1, Human MRP4 (Homo sapiens, UniProt O15439).
T1 sequence (O15439 1-1325): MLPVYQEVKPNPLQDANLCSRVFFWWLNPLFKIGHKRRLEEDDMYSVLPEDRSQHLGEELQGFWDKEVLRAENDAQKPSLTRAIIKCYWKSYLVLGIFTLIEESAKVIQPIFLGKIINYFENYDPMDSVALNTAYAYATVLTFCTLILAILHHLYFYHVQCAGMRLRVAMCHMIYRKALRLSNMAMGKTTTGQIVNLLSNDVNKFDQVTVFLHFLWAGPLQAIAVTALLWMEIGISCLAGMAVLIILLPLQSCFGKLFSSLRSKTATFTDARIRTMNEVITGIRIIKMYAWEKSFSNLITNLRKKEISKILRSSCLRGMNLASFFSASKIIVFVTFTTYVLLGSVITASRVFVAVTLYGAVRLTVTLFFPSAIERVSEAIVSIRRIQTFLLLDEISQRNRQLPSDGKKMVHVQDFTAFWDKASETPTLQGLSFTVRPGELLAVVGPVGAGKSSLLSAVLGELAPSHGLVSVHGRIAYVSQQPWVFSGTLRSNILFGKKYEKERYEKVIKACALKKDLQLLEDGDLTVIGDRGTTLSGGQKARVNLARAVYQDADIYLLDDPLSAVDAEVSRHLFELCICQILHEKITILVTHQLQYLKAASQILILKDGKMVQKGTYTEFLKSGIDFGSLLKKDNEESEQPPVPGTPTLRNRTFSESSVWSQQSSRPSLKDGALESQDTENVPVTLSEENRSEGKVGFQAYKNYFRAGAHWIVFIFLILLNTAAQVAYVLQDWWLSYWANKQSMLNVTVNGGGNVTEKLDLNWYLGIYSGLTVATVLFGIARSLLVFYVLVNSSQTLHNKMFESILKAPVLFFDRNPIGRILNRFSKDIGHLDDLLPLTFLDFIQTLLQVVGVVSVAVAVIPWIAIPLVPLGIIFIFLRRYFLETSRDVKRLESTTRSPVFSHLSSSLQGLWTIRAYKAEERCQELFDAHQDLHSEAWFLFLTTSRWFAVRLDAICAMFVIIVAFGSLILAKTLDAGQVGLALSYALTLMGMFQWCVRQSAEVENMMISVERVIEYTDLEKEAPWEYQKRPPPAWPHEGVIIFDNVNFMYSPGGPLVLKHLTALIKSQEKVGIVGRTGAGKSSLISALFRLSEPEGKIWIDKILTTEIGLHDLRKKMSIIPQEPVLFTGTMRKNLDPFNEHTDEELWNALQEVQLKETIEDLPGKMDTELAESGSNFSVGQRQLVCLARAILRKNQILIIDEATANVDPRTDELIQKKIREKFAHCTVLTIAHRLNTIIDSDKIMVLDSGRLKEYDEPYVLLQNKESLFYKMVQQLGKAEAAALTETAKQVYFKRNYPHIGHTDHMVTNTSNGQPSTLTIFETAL
As to the kind of experiment: Vesicular uptake assay, MRP4 membrane vesicles.

Another data set concerns the target T2, human OAT3 (Homo sapiens, UniProt Q8TCC7).
T2 sequence (Q8TCC7 1-542): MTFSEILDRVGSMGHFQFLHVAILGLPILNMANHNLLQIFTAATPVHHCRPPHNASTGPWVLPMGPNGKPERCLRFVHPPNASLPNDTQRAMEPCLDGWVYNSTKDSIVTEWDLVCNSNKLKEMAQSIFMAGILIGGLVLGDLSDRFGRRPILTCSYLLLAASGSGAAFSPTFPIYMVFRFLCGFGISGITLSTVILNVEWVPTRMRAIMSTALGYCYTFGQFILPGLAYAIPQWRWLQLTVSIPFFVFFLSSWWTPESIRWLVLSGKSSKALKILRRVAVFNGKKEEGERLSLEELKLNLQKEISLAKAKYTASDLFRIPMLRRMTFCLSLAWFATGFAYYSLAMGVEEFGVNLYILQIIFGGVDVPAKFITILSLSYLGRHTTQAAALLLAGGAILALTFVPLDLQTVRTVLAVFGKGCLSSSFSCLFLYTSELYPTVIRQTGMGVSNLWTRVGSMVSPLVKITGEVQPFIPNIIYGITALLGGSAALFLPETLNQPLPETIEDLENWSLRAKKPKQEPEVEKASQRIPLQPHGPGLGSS
As to the kind of experiment: 14C-NAC uptake in HEK-OAT3 cells.

The next data set deals with HEK-EV cells. The experiment in a line: 14C-NAC uptake in HEK-empty vector control cells. Conditions: 200 μM probenecid, 25 min, n = 3. It counts as in vitro ADME, human.
The conditions of data set [1]: mice, cited from earlier work.
Data set [2] is described as follows: NAC plasma pharmacokinetics with or without probenecid, intraperitoneal. The class given is in vivo, Sprague-Dawley rats. To be noted: juvenile rats.
The conditions of data set [3]: ref Giustarini et al., 2012; cited from earlier work.
The target in another data set is T3, human OAT1 (Homo sapiens, UniProt Q4U2R8).
T3 sequence (Q4U2R8 1-563): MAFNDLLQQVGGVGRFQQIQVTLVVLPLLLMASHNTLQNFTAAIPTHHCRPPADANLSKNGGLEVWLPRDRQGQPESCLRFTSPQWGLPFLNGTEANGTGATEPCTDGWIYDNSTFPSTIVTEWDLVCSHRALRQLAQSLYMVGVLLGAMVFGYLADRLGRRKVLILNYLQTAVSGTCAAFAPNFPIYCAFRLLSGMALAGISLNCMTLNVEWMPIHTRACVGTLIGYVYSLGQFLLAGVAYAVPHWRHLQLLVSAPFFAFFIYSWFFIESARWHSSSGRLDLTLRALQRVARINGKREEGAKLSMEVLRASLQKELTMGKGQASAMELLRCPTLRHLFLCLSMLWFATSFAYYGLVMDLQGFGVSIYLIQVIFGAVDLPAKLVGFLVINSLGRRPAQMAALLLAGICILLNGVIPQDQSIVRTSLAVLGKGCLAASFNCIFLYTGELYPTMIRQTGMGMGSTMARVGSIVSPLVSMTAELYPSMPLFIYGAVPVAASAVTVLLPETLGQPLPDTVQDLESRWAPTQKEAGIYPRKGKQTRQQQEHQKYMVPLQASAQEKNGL

In another data set the target is Human MRP1 (Homo sapiens, UniProt P33527). As to the kind of experiment: Vesicular uptake assay, MRP1 membrane vesicles.
Chain of Human MRP1 (P33527 whole entry): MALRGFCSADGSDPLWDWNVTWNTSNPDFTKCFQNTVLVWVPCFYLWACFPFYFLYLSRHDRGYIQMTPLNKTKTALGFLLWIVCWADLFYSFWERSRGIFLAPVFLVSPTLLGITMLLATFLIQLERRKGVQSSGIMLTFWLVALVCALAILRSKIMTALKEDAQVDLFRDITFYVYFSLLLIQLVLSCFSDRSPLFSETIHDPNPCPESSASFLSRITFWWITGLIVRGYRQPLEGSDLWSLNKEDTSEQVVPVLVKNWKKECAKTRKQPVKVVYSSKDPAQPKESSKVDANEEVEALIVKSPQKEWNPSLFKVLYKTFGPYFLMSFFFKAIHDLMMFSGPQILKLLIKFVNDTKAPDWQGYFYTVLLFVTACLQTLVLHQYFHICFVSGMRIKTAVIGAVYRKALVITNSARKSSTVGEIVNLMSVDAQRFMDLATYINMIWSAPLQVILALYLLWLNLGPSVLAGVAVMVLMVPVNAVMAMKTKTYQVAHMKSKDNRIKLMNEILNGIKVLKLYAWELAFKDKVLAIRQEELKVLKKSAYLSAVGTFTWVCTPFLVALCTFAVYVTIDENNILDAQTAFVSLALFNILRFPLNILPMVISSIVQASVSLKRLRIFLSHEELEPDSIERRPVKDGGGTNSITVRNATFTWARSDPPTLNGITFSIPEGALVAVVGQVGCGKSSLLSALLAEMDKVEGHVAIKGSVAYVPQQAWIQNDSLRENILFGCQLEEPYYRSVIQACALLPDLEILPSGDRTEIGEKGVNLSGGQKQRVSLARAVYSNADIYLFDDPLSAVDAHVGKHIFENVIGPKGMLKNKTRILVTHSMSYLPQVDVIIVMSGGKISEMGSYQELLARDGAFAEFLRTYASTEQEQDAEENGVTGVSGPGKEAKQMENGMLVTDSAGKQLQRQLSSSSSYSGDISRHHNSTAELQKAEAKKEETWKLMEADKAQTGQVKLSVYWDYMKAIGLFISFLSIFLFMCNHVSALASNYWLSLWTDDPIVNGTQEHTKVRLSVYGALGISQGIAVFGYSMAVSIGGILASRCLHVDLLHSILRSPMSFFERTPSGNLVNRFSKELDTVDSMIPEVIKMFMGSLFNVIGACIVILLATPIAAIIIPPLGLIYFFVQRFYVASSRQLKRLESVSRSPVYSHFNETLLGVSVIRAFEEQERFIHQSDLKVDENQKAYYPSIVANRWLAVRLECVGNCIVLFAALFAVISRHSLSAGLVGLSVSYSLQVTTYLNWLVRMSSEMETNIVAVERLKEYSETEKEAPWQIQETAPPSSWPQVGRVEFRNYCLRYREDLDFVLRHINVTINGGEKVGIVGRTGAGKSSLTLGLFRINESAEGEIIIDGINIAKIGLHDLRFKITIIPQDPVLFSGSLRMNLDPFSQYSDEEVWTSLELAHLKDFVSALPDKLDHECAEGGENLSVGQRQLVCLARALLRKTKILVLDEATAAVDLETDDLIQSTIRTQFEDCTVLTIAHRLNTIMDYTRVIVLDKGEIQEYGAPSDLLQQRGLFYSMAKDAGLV
For data set [4] the following is noted: ref Borgstrom et al., 1986; cited from earlier work.
The format of data set [5] is in vivo, Sprague-Dawley rats.
The conditions of data set [6]: given into the carotid artery, rats; ref Neuwelt et al., 2001; cited from earlier work.
Where [7] appears, read: OAT3-overexpressing cells, 25 μM NAC.
Setting [8] is: in vitro uptake and inhibition experiments.

These results are taken from paper PMC5572076 (Xenobiotica; the fate of foreign compounds in biological …, 2016).

The structures appear in SMILES notation. Entries after “also recorded” stand apart in the source; their conditions may differ. Like-named read-outs stand apart in the source and are kept apart here.

`C[C@]12CC[C@@H]3c4ccc(O)cc4CC[C@H]3[C@@H]1CC[C@@H]2O[C@@H]1O[C@H](C(=O)O)[C@@H](O)[C@H](O)[C@H]1O` [E217βG, estradiol-17β-D- glucuronide]: on Human MRP4 (MRP4 vesicles, 0.25–100 μM, 0.5 minutes), the “ATP-dependent uptake of positive control substrate” value is recorded as “saturable uptake”.
For `CCCN(CCC)S(=O)(=O)c1ccc(C(=O)O)cc1` [probenecid], the “decrease of NAC uptake by probenecid” value on human OAT3 (OAT3, 200 μM probenecid pre-incubation 5 min, 10 min uptake, n = 3) is recorded as 93.9%. The “effect of probenecid on NAC uptake by control cells” value in the data set with HEK-EV cells is given as “no difference”.
Take `CC(=O)N[C@@H](CS)C(N)=O`: the “detection in the brain” value in data set [1] (IP and oral administration, ref Offen et al., 2004) is given as “able to detect”.
For `CC(=O)N[C@@H](CS)C(=O)O` [NAC, N-acetylcysteine], the “saturation of concentration-dependent NAC uptake” value is “did not reach saturation” on human OAT3 (HEK-OAT3, 10 min, up to 10 mM NAC) and “did not reach saturation” at human OAT1 (HEK-OAT1, 25 min, up to 10 mM NAC). For the same molecule, the NAC uptake rate came to 37.7 ± 1.9 pmol/mg/min on human OAT3 (setting [7]) and 4.2 ± 0.1 pmol/mg/min on human OAT1 (OAT1-overexpressing cells, 25 μM NAC). Further, the “time up to which NAC uptake is linear” value on human OAT3 (setting [7]) was “at least 15 minutes”; at human OAT1 (OAT1-overexpressing cells, 25 μM NAC, latest time point measured), at least 42.5 min. In addition, the “substrate status for OAT3” value at human OAT3 (setting [8]) is on record as “substrate”. The “apparent plasma clearance (CL/F)” value in [2] (NAC 163 mg/kg ip alone) is 18.55 ± 0.483 mL/min/kg; in [2] (NAC 163 mg/kg ip in combination with probenecid 150 mg/kg ip) it was 11.2 ± 0.137 mL/min/kg. Further, in [3], the “log D” value is −5.4. Moreover, on human OAT1 (setting [8]), the “substrate status for OAT1” value is on record as “substrate”. Moreover, the “levels in the brain” value in [1] (IP administration, ref Erickson et al., 2012) is “low levels of NAC were measurable”. In addition, the “ATP-dependent, transporter-mediated uptake of NAC vs AMP (negative control)” value on Human MRP1 (MRP1 vesicles, 25 μM NAC) was “No uptake; also recorded: not statistically different”; at Human MRP4 (MRP4 vesicles, 25 μM NAC), “No uptake; also recorded: not statistically different”. On Human MRP1 (membrane vesicles), the “substrate status for MRP1” value is on record as “not a substrate”. Further, the renally eliminated result in [4] was “approximately 30%”. For the same molecule, the “substrate status for MRP4” value on Human MRP4 (membrane vesicles) was “not a substrate”. Also, the “NAC brain levels at late time points” value in data set [5] (NAC and probenecid group, up to last sampling time point (8 h)) was “remained measurable”; in [5] (NAC only group, 6 h and 8 h time points), “below the limit of quantificaiton; also recorded: below limit of quantification”. Also, the “crossing of the BBB” value in data set [6] is reported as “can cross the BBB”.

What is called log D is lipophilicity at a set pH, counting ionised and neutral species.
